These results are taken from patent US20250122171A1, “Substituted Amine Compounds, Compositions and Methods of Use” (Deep Apple Therapeutics, Inc., priority 2023, published 2025).

For orientation: IC50 means the concentration needed to halve the response being measured. A high value points to weaker potency in that assay.

Holding throughout (format): cell-based
The target in data set [1] is T1, human MRGPRX2 (Homo sapiens, UniProt Q96LB1).
T1 construct: expressed in transfected cells; host or cells: FlpIn TRex HEK293 (TRex-MRGPRX2-HEK), doxycycline-induced
T1 sequence (Q96LB1 1-330): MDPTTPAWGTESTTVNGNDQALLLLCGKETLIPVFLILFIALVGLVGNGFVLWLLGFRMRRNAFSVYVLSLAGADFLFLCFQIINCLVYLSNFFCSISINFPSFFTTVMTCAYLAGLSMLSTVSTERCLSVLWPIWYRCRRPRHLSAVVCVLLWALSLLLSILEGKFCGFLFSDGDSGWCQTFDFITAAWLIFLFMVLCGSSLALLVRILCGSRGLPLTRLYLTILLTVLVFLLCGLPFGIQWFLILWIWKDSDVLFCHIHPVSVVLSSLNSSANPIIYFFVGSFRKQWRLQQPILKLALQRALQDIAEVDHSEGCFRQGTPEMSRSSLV
Put plainly: MRGPRX2 Activity Assay (IP-1 HTRF, antagonist mode). Conditions: FlpIn TRex-MRGPRX2-HEK293 cells; versus 1 μM Cortistatin-14 agonist; 30 minutes preincubation. An outline of the steps: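 Doxycycline-induced (100 ng/mL, 18-24 h) TRex HEK293 cells stably expressing human MRGPRX2, in HBSS/20 mM HEPES/0.1% BSA/10 mM LiCl. Compounds (top final 30 uM, 1% DMSO) preincubated 30 min, then agonist stimulation 1 h at 37° C without wash. IP-1 accumulation read by HTRF; IC50 from 4-parameter fit.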
(In general: TR-FRET usually uses a lanthanide donor and a delayed reading to cut background.)

Data set [2] deals with T2, hERG channel (Homo sapiens, UniProt Q12809).
T2 construct: host or cells: hERG-T-Rex 293 (HEK 293), doxycycline-induced
T2 sequence (Q12809 whole entry): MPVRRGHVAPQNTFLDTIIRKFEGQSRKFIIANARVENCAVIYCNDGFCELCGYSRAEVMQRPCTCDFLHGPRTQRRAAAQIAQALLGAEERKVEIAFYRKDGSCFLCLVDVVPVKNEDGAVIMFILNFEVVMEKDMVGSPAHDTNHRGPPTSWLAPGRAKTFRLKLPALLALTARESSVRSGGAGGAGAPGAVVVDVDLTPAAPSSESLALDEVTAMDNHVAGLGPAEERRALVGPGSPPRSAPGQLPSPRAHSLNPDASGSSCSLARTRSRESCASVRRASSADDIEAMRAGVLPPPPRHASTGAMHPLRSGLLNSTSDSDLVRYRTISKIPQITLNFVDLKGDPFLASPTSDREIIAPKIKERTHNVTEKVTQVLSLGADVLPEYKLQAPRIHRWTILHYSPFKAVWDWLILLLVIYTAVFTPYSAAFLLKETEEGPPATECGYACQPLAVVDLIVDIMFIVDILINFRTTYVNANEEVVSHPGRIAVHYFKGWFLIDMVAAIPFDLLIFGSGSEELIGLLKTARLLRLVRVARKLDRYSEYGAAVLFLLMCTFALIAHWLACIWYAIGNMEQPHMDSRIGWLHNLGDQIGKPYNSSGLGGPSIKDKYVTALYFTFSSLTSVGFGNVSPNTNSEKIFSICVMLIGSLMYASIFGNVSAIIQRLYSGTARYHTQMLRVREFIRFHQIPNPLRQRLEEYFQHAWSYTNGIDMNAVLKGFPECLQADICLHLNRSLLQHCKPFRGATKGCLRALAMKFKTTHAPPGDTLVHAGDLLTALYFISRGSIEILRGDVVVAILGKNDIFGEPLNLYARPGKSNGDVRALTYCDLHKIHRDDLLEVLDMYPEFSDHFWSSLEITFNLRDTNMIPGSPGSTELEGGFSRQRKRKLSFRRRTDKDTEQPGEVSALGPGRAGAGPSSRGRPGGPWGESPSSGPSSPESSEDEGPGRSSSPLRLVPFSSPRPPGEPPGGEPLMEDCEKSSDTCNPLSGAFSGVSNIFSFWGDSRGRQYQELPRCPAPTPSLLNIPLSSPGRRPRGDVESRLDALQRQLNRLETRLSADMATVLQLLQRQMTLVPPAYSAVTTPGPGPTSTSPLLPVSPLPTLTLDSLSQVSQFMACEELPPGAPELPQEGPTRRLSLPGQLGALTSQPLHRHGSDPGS
Put plainly: hERG Safety Evaluation by Manual Patch-Clamp System. Conditions: hERG-T-Rex 293 cells, whole cell patch-clamp at 35° C. How it is done:
A stable BIEK 293 cell line with inducible hERG channel expression (hERG-T-Rex 293, Invitrogen cat #K1236) was cultured in medium containing 85% DMVEM, 10% dialyzed FBS, 0.1 mM NEAA, 25 mM HEPES, 100 U/mL Penicillin-Streptomycin, 5 μg/mL Blasticidin and 400 μg/mL Geneticin. Before the assay, cells were induced with doxycycline at 1 μg/mL for 48 hours. On the experiment day, the induced cells were resuspended and plated onto coverslips at 5×10^5 cells/per 3.5 cm cell culture dish prior to use and cultured in medium without Blasticidin and Geneticin.
Electrophysiology recordings were performed in extracellular solution (ECS) containing (in mM): 132 NaCl, 4 KCl, 3 CaCl2), 0.5 MgCl2, 11.1 D-(+) glucose, and 10 HEPES (pH adjusted to 7.35 with NaOH, osmolarity 285-295 mOsm). Recording pipets contained (in mM) 10 NaCl, 10 KCl, 110 KF, 10 EGTA, and 10 HEPES (pH adjusted to 7.2 with KOH, osmolarity 285-295 mOsm).
Test and positive control (dofetilide) compounds were solubilized in 100% DMSO at 10 mM or 75 mM, respectively. Intermediate dilutions of compounds were prepared by serial dilution in 100% DMSO, after which working solutions were prepared in ECS (final DMSO concentration=0.1-1% v/v for test compounds, and 0.1% for dofetilide). […]
Whole cell recordings of voltage-clamped cells were performed at 35° C., with all working solutions heated to 34° C. in a water bath before administration. Current recordings were collected at 20 kHz with a 10 kHz filter and were compensated for capacitance. Cells were clamped at −60 mV, and leak current was tested at −80 mV for 500 ms. The hERG current was elicited by depolarizing at +30 mV for 4.8 seconds and then the voltage was taken back to −50 mV for 5.2 seconds to remove the inactivation and observe the deactivating tail current. Recordings were continued for 120 seconds to assess current stability. Only stable cells with recording parameters above threshold were used in compound administration experiments. Vehicle control was applied to cells to establish baseline. […] For dose response testing, test compound was applied to the cells cumulatively from low to high concentrations. Dofetilide at concentration of 450 nM was also applied to each cell post-hERG current measurement at the highest concentration of test compound as the internal low control for normalization of percentage inhibition. Dofetilide (5 doses) response was performed as positive hERG inhibition control for each batch of cells.
The following criteria were used to determine data acceptability: 1) Initial seal resistance>1 GΩ; 2) Leak currents<50% of the control peak tail currents at any time; 3) Normal test pulse current waveform (e.g., hERG peak tail) current amplitude greater than prepulse current amplitude and the peak tail amplitude>250 pA; 4) Membrane resistance Rm>500 MΩ; 5) Access resistance (Ra)<15 MΩ; 6) Apparent run-down of peak current<2.5% per min. Percent current inhibition was calculated as (1−(Peak tail currentcompound−Peak tail currentpositive control)/(Peak tail currentBlank vehicle−Peak tail currentpositive control))×100. PatchMaster software was used to extract the peak current from the original data. The dose response curve of test compounds was plotted with % inhibition against the concentration of test compounds using Graphpad Prism 8.0, and the data fit to a sigmoid dose-response curve with a variable slope.
For orientation: The hERG channel carries a current that helps repolarise heart muscle cells.

Data set [3] has as its system LAD-2 cells. Put plainly: LAD2 Degranulation Assay (Protocol 1), β-hexosaminidase release. Conditions: Homo sapiens, 1 μM Cortistatin-14, 30 minute preincubation, top concentration 3 μM. Here is the method:
(§1) LAD-2 cells were maintained at 37° C. with 5% CO2 and grown in complete StemPro-34 media supplemented with 1% L-Glutamate, 1% penicillin/streptomycin, and 250 ng/mL human SCF.
On the day of experiment, cells were collected by centrifugation and seeded in 384-well assay plates, at 4,000 cells per well in 10 μl freshly made assay buffer (10 mM HEPES, 130 mM NaCl, 5 mM KCl, 1.8 mM CaCl2), 1.0 mM MgCl2, 5.6 mM glucose, 0.1% BSA, pH=7.40). For dose-response assays, compounds solubilized in 100% DMSO at 30 mM were serially diluted (1:3) first in 100% DMSO, and 2 intermediate dilutions with assay buffer were used to establish a final top concentration of 3 μM (in assay plate). Final DMSO concentration was kept constant at 0.1% across plates for all assays. Cortistatin-14 at 30 mM stock concentration was solubilized in HBSS+0.1% BSA, stored at −20° C. in 5 μl aliquots and discarded after one freeze-thaw cycle. Final concentration of agonist used in both dose-response and single point assays was 1 μM, prepared in assay buffer.
(§2) Antagonist equilibrium was established with 30 minute preincubation, followed by no wash, direct addition, and stimulation of agonist for 30 minutes at 37° C. For detection of β-hexosaminidase activity, assay plates were centrifuged and 5 μl of cell-free supernatant from each assay well was transferred to a black-walled black-bottomed 384-well plate. Substrate solution (1 mM 4-Methylumbelliferyl N-acetyl-β-D-glucosaminide in citrate buffer, pH=4.5, 15 μl) was added to each well and plates were incubated for 1 hour at 37° C. The plate was read on an EnVision XCite plate reader for umbelliferone fluorescence intensity (λex=355 nm, λem=460 nm). Background-subtracted data was analyzed using either GraphPad Prism or a custom Python script to calculate IC50 using either Log[Antagonist] vs. response (4 parameter) nonlinear regression (dose-response assays).

In data set [4] the test system is LAD-2 cells. Put plainly: LAD2 Degranulation Assay (Protocol 2), β-hexosaminidase release. Conditions: Homo sapiens; for IC50: 0.5 μM Cortistatin-14, 2 h preincubation, cells without SCF 18-24 hours, top concentration 3 μM; for activity at 0.25 µM: single point 250 nM, 0.5 μM Cortistatin-14, % control β-hexosaminidase activity. How it is done:
as §1
18-24 hours prior to experiment, LAD-2 cells were collected and transferred to growth media without SCF. On the day of experiment, cells were collected by centrifugation and seeded in 384-well assay plates, at 4,000 cells per well in 17 μl freshly made assay buffer (10 mM HEPES, 137 mM NaCl, 2.7 mM KCl, 1.8 mM CaCl2), 1.0 mM MgCl2, 5.6 mM glucose, 0.4 mM NaH2PO4, 0.04% BSA, pH=7.40). For dose-response assays, compounds solubilized in 100% DMSO at 30 mM were serially diluted (1:3) first in 100% DMSO, and 2 intermediate dilutions with assay buffer were used to establish a final top concentration of 3 μM (in assay plate). For single point assays, dilution of DMSO stocks to 250 nM (in assay plate) was performed in the same manner as described for dose-response assays. Final DMSO concentration was kept constant at 0.1% across plates for all assays. Cortistatin-14 at 30 mM stock concentration was solubilized in HBSS+0.1% BSA, stored at −20° C. in 5 μl aliquots and discarded after one freeze-thaw cycle. Final concentration of agonist used in both dose-response and single point assays was 0.5 μM, prepared in assay buffer.
as §2, with “with 2 h” for “with 30 minute”, “[…])” for “15 μl)”, “(dose-response assays) or % control β-hexosaminidase activity (single point” for “(dose-response”

Compound `C[C@@H](C(=O)Nc1cn(Cc2ccc(F)cc2F)cn1)N1CCC(F)(F)[C@@H](c2cc[n+]([O-])cc2)C1` (single isomer, unassigned) [Compound 1] had an IC50 in data set [1] of 58 nM. For the same compound, in data set [2], the “hERG Inhibition (%) @ 1 μM” value was 10% and the “hERG Inhibition (%) @ 20 μM” value came to 35%. Besides, inhibition in data set [3] was half-maximal at 1940 nM (IC50).
As to `C[C@@H](C(=O)Nc1nc2cc3c(cc2s1)OCO3)N1CCC(F)(F)[C@@H](c2cc[n+]([O-])cc2)C1` (single isomer, unassigned) [Compound 11], the half-maximal inhibitory concentration (IC50) in data set [1] came to 3.7 nM. Further, in data set [2], the “hERG Inhibition (%) @ 1 μM” value came out at 11% and the “hERG Inhibition (%) @ 20 μM” value turned out to be 62%. The same compound returned an IC50 in data set [3] of 12 nM.
In the case of `C[C@@H](C(=O)Nc1cn2c(n1)CC[C@H]2c1cc(F)cc(F)c1)N1CCC(F)(F)[C@@H](c2ccc(=O)[nH]c2)C1` (single isomer, unassigned) [Compound 494], in data set [1], the IC50 was 20 nM. In addition, in data set [2], the “hERG Inhibition (%) @ 1 μM” value amounted to 9% and the “hERG Inhibition (%) @ 20 μM” value is given as 54%. In data set [4], this compound had an IC50 of 6.9 nM and an activity at 0.25 µM of 13%.
With `C[C@H](C(=O)Nc1cn(Cc2cc(F)cc(F)c2)c(C(F)F)n1)N1CCC(F)(F)[C@@H](c2cc[n+]([O-])cc2)C1` (single isomer, unassigned) [Compound 83], the IC50 worked out at 8 nM in data set [1], 12 nM in data set [4] and 13 nM in data set [3].
In data set [1], `C[C@H](C(=O)Nc1cn(Cc2cc(F)cc(F)c2)cn1)N1CCC(F)(F)[C@@H](c2cc[n+]([O-])cc2)C1` (single isomer, unassigned) [Compound 5] came in with a 50% inhibitory concentration (IC50) of 9 nM. Also, in data set [2], the “hERG Inhibition (%) @ 1 μM” value is listed as 3% and the “hERG Inhibition (%) @ 20 μM” value was determined as 35%. The compound also yielded an IC50 in data set [3] of 14 nM.
In turn, `C[C@@H](C(=O)Nc1cn2c(n1)CC[C@@H]2c1cc(F)cc(F)c1)N1CCC(F)(F)[C@@H](c2cc[n+]([O-])cc2)C1` (single isomer, unassigned) [Compound 489] displayed a 50% inhibitory concentration (IC50) in data set [1] of 13 nM. In data set [2], the “hERG Inhibition (%) @ 1 μM” value amounted to 12% and the “hERG Inhibition (%) @ 20 μM” value is 47%. Also, in data set [4], the midpoint of inhibition, the IC50, lay at 9.5 nM and the activity at 0.25 µM came out at 14%.
`C[C@@H](C(=O)Nc1cn(Cc2cc(F)c(F)c(F)c2)cn1)N1CCC(F)(F)[C@@H](c2cc[n+]([O-])cc2)C1` [Compound 34, 4-((S)-4,4-difluoro-1-((S)-1-oxo-1-((1-(3,4,5-trifluorobenzyl)-1H-imidazol-4-yl)amino)propan-2-yl)piperidin-3-yl)pyridine 1-oxide]: the IC50 in data set [1] was found to be 11 nM; in data set [3], 25 nM.
